From paper PMC12371492, “Poly-Arginine Tails and Helical Segments of Natural Antimicrobial Peptides Display Concerted Action at Membranes for Enhanced Antimicrobial Effects” (ACS Bio & Med Chem Au, 2025)
Like-named read-outs stand apart in the source and are kept apart here. Ends that are not written are not given here.

How the values were obtained:
[1] = system: Vibrio cholerae O1 El Tor strain C6706; assay type: cell-based; conditions: CM9-Hepes pH 7.4, 5 × 10^5 cfu/mL, 20 h at 37 °C shaking, OD 600 nm, triplicate
bacteria = bacteria and source not stated (discussion)
[2] = Calcein dye leakage assay on LUVs
Protocol: Calcein leakage assays were done on large unilamellar vesicles (LUVs) following a procedure previously described. , Briefly, a 3:1 POPC/POPG lipid film (containing 4 μmol total of lipids) was prepared in a round-bottom flask using the lipids dissolved in chloroform. The solvent was removed under N2 gas before drying overnight under vacuum. The next day, the lipid cake was hydrated with 300 μL of 80 mmol/L calcein dye (pH 7.4) to generate a suspension that was subjected to 3 freeze–thaw cycles before extrusion through a 0.1 μm polycarbonate filter placed in a mini extruder (Avanti Polar Lipids). Untrapped calcein was separated from the LUVs by chromatography using a Sephadex G-50 column run with HEPES buffer (50 mmol/L, 100 mmol/L NaCl, 0.3 mmol/L EDTA, pH 7.4). A total phosphorus assay was performed to determine the exact lipid concentration of the LUVs. After diluting the vesicles to a final concentration of ∼35 μmol/L, the LUVs were plated in 180 μL wells and exposed to 20 μL of TP4 solutions serially diluted from stock, as needed to generate peptide-to-lipid ratios (P/L) ranging from P/L = 1:2 and 1:1024. Triplicates of each well were run, and at least three independent assays were performed as well. The 96-well plate was incubated at 20 °C with shaking for 40 min. After equilibration at room temperature, the fluorescence was measured using a BioTek SynergyH1 plate reader (BioTek, Winooski, VT) using excitation and emission wavelengths of 490 and 520 nm, respectively. The fractional leakage produced by TP4 was calculated using the equation: %leakage=Ix−I0%/I100%−I0% where I x is the fluorescence intensity in a peptide-containing well, I 100% is the intensity of the positive control (100% leakage obtained with 20 μL of 1% Triton-X detergent), and I 0% is the intensity of the negative control (0% leakage obtained with 20 μL nanopure water). P1 was run in parallel for comparative purposes. The dose–response curves were fitted in GraphPad Prism using a modified version of the Hill equation to extract the EC50 as the P/L where half of the dye has been released. […]

[3] = system: Escherichia coli (E. coli) MG1655; assay type: cell-based
Protocol: (§1) Minimum inhibitory concentrations were determined by broth microdilution technique. Two bacterial species were used: Gram-positive bacteria Staphylococcus epidermidis (S. epidermidis), derived from ATCC 14990 and Gram-negative bacteria Escherichia coli (E. coli) MG1655, respectively. S. epidermidis was grown in TSB, and E. coli was grown in MHB. Both were stored at 4 °C on their respective growth medium agar plates. Before the assay, bacteria were grown overnight in 5 mL of growth medium at 37 °C. The grown bacteria were further subcultured in 3 mL of growth medium by diluting to 1% until the O.D. reached 0.4–0.6 within 2.5–3 h. After the bacteria reached the mid log phase, further dilution was made to attain an O.D. of 0.001 to get a final of ∼10^5 CFU/mL in each well of a 96-well plate. An Opentron OT_2 robot pipetting system was used to automatically prepare serial dilutions of peptides and add the bacteria to attain a total volume of 100 μL in each well. The wells containing only medium served as a negative blank. The plate was then incubated for 24 h at 37 °C, and the O.D. of the plate was recorded at 600 nm using a BioTek (Agilent, Santa Clara, CA) microplate reader (Figure S1). The lowest concentration at which no bacterial growth was observed was considered the MIC of the peptide.

[4] = system: Staphylococcus epidermidis (S. epidermidis), derived from ATCC 14990; assay type: cell-based
Protocol: as §1

[5] = broth microdilution, MHB, ~10^5 CFU/mL, 24 h at 37 °C, O.D. 600 nm, lowest concentration with no growth
[6] = broth microdilution, TSB, ~10^5 CFU/mL, 24 h at 37 °C, O.D. 600 nm, lowest concentration with no growth

Row | Substance | MIC Vibrio cholerae [1] [µM] | MIC values (bacteria) [µM] | MIC E. coli [3, 5] [µM] | MIC S. epidermidis [4, 6] [µM] | other results
1 | FFHHIFRGIVHVGKTIHRLVTG-NH2 [P1, reference compound] | 16 | < 1 | – | – | –
2 | FFHHIFRGIVHVGKTIHRLVTGRRRRR-NH2 [P1-R5, P1 with the R5 motif added at the C-terminal end] | – | – | – | – | EC50, L/P yielding 50% calcein leakage ([2]; 3:1 POPC/POPG LUVs ~35 μmol/L lipid, HEPES pH 7.4, 40 min at 20 °C, fluorescence 490/520 nm, ± standard error, three assays in triplicate): 97.2 ± 3.4 L/P; calcein leakage ([2]; POPC/POPG liposomes, P/L of 1:10): 100%; factor more active than P1 (EC50 ratio) ([2]; calcein leakage, 3:1 POPC/POPG LUVs): 3.4 fold
3 | FIHHIIGGLFSAGKAIHRLI-NH2 [TP4-noR5] | – | – | 16 | 2 | –
4 | FIHHIIGGLFSAGKAIHRLIRRRRR-NH2 [TP4] | 1 | < 1 | – | – | MIC E. coli ([3]; MG1655, 24 h): 4 µM; MIC S. epidermidis ([4]; ATCC 14990, 24 h): 1 µM
5 | QLAQALAAALAALAQGW-NH2 [NP] | – | – | >64 | >64 | –
6 | QLAQALAAALAALAQGWRRRRR-NH2 [NP-R5] | – | – | 7.5 | 2 | –
